Test results from patent US20030157670A1 (priority 2002, published 2003).

Columns and labels:
[1] = system: capsaicin decomposing/synthesizing enzyme; assay type: biochemical, Streptomyces mobaraensis IFO 13819
[2] = system: capsaicin decomposing/synthesizing enzyme (purified enzyme); assay type: biochemical, Streptomyces mobaraensis IFO 13819
aminoacylase = assay: Synthesis of capsaicin analogs from vanillylamine and fatty acids with aminoacylase (comparative example); assay type: biochemical; settings: vanillylamine hydrochloride 10 mM, fatty acid 100 mM, water/n-hexane, 37° C., 8 days, 0.5 mM CoCl2
Description: (§1) The reaction temperature was 37° C.
(§2) As a comparative example, aminoacylase was used. The resulting capsaicin analogs were quantitatively measured by the HPLC analysis of the hexane phases.

[3] = system: capsaicin decomposing/synthesizing enzyme (purified enzyme from Streptomyces mobaraensis IFO13819); assay: Synthesis of capsaicin analogs from vanillylamine and fatty acids with the enzyme of the invention; assay type: biochemical; settings: vanillylamine hydrochloride 10 mM, fatty acid 100 mM, 30 U enzyme, water/n-hexane, 37° C., 8 days, 0.5 mM CoCl2
Description: Next, capsaicin analogs were synthesized by using the capsaicin decomposing/synthesizing enzyme (purified enzyme from Streptomyces mobaraensis IFO13819) according to the present invention.
as §1, §2

Structure (SMILES) | residual activity, cobalt ions added versus not added [1] | effect on capsaicin hydrolysis activity of the purified enzyme [2] | Synthesis of capsaicin analogs, Aminocylase (aminoacylase) | Synthesis of capsaicin analogs, Capsaicin decomposing synthesizing enzyme of the invention [3]
[Cl-].[Cl-].[Co+2] [CoCl2] | higher residual activity | enhanced | – | –
CCCCCCCCCCCC(=O)O [Lauric acid] | – | – | 0.051 mM | 1.25 mM
CCCCCCCCCCCCCC(=O)O [Myristic acid] | – | – | – | 0.24 mM
